Measurements from PubChem BioAssay AID1963970 (Molecular Pharmacology Branch, DTP, NCI, 2024).

Test system: 931267-113-T-J1-PDC multicell spheroid viability
Experiment: Anticancer human tumor 931267-113-T-J1-PDC patient-derived colon adenocarcinoma cell line growth inhibition [PI3K]
Settings: for IC50: curve of first compound; for viability, T/C: stronger effect = lower value; active = viability on the fitted dose curve at most 10% of control; inactive = the rest
Text: Combinatorial screen of targeted agents with the PI3K inhibitors inavolisib, alpelisib, duvelisib, and copanlisib in multi-cell type tumor spheroids
A high-throughput screen of multi-cell type tumor spheroids was designed to identify active combinations of targeted small molecules and PI3K pathway inhibitors. Complex spheroids include a stromal component modeled by human endothelial cells (HUVEC) and fibroblasts modeled by human mesenchymal stem cells (MSCs). The concentration ranges selected for each drug and investigational agent were based upon clinically achievable concentrations if the clinical Cmax of the agent was known.
Compounds. The drugs and investigational agents: inavolisib (NSC800729), alpelisib (NSC765974), duvelisib (NSC772469), copanlisib (NSC816437), ipatasertib (NSC767898), afuresertib (NSC778305), talazoparib (NSC767125), sapanisertib (NSC764658), selumetinib (NSC741078), tovorafenib (DAY101, NSC766906), vemurafenib (NSC761431), ravoxertinib (NSC781343), sotorasib (NSC818433), MRTX1133 (NSC 836407), abemaciclib (NSC 768073), palbociclib (NSC758247), venetoclax (NSC 766270), SY5609 (NSC837396), enzalutamide (NSC755605), and darolutamide (NSC825331), were obtained from the National Cancer Institute (NCI) Developmental Therapeutics Program Chemical Repository. The FDA-approved anticancer drug set is available from the NCI Developmental Therapeutics Program. […] The stock solutions were prepared in dimethyl sulfoxide (DMSO, Sigma-Aldrich, St. Louis, MO, cat. D2650) at 800-fold the tested concentration and stored at -70 degrees C prior to their use. All drugs and investigational agents were tested over a range starting from a high concentration at or near the clinical Cmax and decreasing in half-log increments. If the clinical Cmax for an agent had not been determined, the highest concentration tested was 10 microM.
Cell Culture. All cells were maintained in an incubator at 37 degrees C and 5% CO2 with 95% humidity. The PDC lines were cultured according to standard operating procedures established by the NCI PDMR (https://pdmr.cancer.gov/sops/default.htm). All PDCs were thawed and cultured in Matrigel-coated flasks prepared with a working solution of 1X Ham's F-12 nutrient mix, without supplementation (Invitrogen, Waltham, MA, cat. 11765054), 100 U/mL penicillin-streptomycin (Invitrogen, cat. 15140122), and 2.5% Matrigel (Corning Inc., Corning, NY, cat. 354248) for the first three passages. The 354836-022-R-J1-PDC, 475296-252-R-J1-PDC, and 997726-040-R-J2-PDC lines were cultured in 6A media, which includes advanced DMEM/F-12 (Thermo Fisher Scientific, cat. 12634028), 10 mM HEPES (Thermo Fisher Scientific, cat. 15630080), 1X GlutaMAX supplement (Thermo Fisher Scientific, cat. 35050061), 0.1 mg/mL primocin (InvivoGen, San Diego, CA, cat. ant-pm-2), 10% defined fetal bovine serum, heat inactivated (HyClone Laboratories Inc., Logan, UT, cat. SH30070.03HI), 50% L-WRN conditioned media (ATCC, cat. CRL-3276), 1.25 mM N-Acetyl-L-cysteine (Sigma-Aldrich, cat. A9165), 10 mM nicotinamide (Sigma-Aldrich, cat. N0636), 1X B-27 supplement (Thermo Fisher Scientific, cat. 17504044), 1X N-2 supplement (Thermo Fisher Scientific, cat. 17502048), and 10 microM Y-27632 dihydrochloride (Tocris Bioscience, Bristol, United Kingdom, cat. 1254). The 624824-186-R-J2-PDC line was cultured in 6C/Colon 1B media, which includes all 6A media components plus 50 ng/mL human EGF recombinant protein (Thermo Fisher Scientific, cat. PHG0311). […]

[1] = second compound 0.00316 µM, first compound 0.0316 µM
[2] = second compound 0.00316 µM, first compound 0.1 µM
[3] = second compound 0.01 µM, first compound 0.0316 µM
[4] = second compound 0.01 µM, first compound 0.1 µM
[5] = second compound 0.0316 µM, first compound 0.0316 µM
[6] = second compound 0.0316 µM, first compound 0.1 µM
[7] = second compound 0.1 µM, first compound 0.0316 µM
[8] = second compound 0.1 µM, first compound 0.1 µM
[9] = second compound 0.316 µM, first compound 0.0316 µM
[10] = second compound 0.316 µM, first compound 0.1 µM
[11] = second compound 1 µM, first compound 0.0316 µM
[12] = second compound 1 µM, first compound 0.1 µM
[13] = second compound 0.00316 µM, first compound 0.316 µM
[14] = second compound 0.00316 µM, first compound 1 µM
[15] = second compound 0.00316 µM, first compound 3.16 µM
[16] = second compound 0.00316 µM, first compound 10 µM
[17] = second compound 0.01 µM, first compound 0.316 µM
[18] = second compound 0.01 µM, first compound 1 µM
[19] = second compound 0.01 µM, first compound 3.16 µM
[20] = second compound 0.01 µM, first compound 10 µM
[21] = second compound 0.0316 µM, first compound 0.316 µM
[22] = second compound 0.0316 µM, first compound 1 µM
[23] = second compound 0.0316 µM, first compound 3.16 µM
[24] = second compound 0.0316 µM, first compound 10 µM
[25] = second compound 0.1 µM, first compound 0.316 µM
[26] = second compound 0.1 µM, first compound 1 µM
[27] = second compound 0.1 µM, first compound 3.16 µM
[28] = second compound 0.1 µM, first compound 10 µM
[29] = second compound 0.316 µM, first compound 0.316 µM
[30] = second compound 0.316 µM, first compound 1 µM
[31] = second compound 0.316 µM, first compound 3.16 µM
[32] = second compound 0.316 µM, first compound 10 µM
[33] = second compound 1 µM, first compound 0.316 µM
[34] = second compound 1 µM, first compound 1 µM
[35] = second compound 1 µM, first compound 3.16 µM
[36] = second compound 1 µM, first compound 10 µM
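Also: viability read 7 days after compound addition.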

CC(C)n1nc(-c2ccc3oc(N)nc3c2)c2c(N)ncnc21 + CC(Nc1ccc2c(c1)OCCn1cc(N3C(=O)OCC3C(F)F)nc1-2)C(N)=O
0.0487 µM: IC50 (second compound 0.316 µM)
0.0801 µM: IC50 (second compound 0.00316 µM)
0.0377 µM: IC50 (second compound 1 µM)
0.0666 µM: IC50 (second compound 0.0316 µM)
> 0.1 µM: IC50 (second compound 0.01 µM)
0.0607 µM: IC50 (second compound 0.1 µM)
inactive: viability, T/C (second compound 0.00316 µM, first compound 0.000316 µM) 94.6% | viability, T/C (second compound 0.00316 µM, first compound 0.001 µM) 98% | viability, T/C (second compound 0.00316 µM, first compound 0.00316 µM) 83% | viability, T/C (second compound 0.00316 µM, first compound 0.01 µM) 91.5% | viability, T/C [1] 80.2% | viability, T/C [2] 42.5% | viability, T/C (second compound 0.01 µM, first compound 0.000316 µM) 104% | viability, T/C (second compound 0.01 µM, first compound 0.001 µM) 101% | viability, T/C (second compound 0.01 µM, first compound 0.00316 µM) 86% | viability, T/C (second compound 0.01 µM, first compound 0.01 µM) 81.1% | viability, T/C [3] 68% | viability, T/C [4] 52.2% | viability, T/C (second compound 0.0316 µM, first compound 0.000316 µM) 97.7% | viability, T/C (second compound 0.0316 µM, first compound 0.001 µM) 104% | viability, T/C (second compound 0.0316 µM, first compound 0.00316 µM) 101% | viability, T/C (second compound 0.0316 µM, first compound 0.01 µM) 90% | viability, T/C [5] 71% | viability, T/C [6] 38.8% | viability, T/C (second compound 0.1 µM, first compound 0.000316 µM) 89.4% | viability, T/C (second compound 0.1 µM, first compound 0.001 µM) 83.8% | viability, T/C (second compound 0.1 µM, first compound 0.00316 µM) 93% | viability, T/C (second compound 0.1 µM, first compound 0.01 µM) 77.7% | viability, T/C [7] 64.1% | viability, T/C [8] 39.6% | viability, T/C (second compound 0.316 µM, first compound 0.000316 µM) 82.7% | viability, T/C (second compound 0.316 µM, first compound 0.001 µM) 82.7% | viability, T/C (second compound 0.316 µM, first compound 0.00316 µM) 69% | viability, T/C (second compound 0.316 µM, first compound 0.01 µM) 70.8% | viability, T/C [9] 59.2% | viability, T/C [10] 36.7% | viability, T/C (second compound 1 µM, first compound 0.000316 µM) 72.5% | viability, T/C (second compound 1 µM, first compound 0.001 µM) 69.3% | viability, T/C (second compound 1 µM, first compound 0.00316 µM) 70.6% | viability, T/C (second compound 1 µM, first compound 0.01 µM) 59% | viability, T/C [11] 55.9% | viability, T/C [12] 31.8%

CC1(C)CCC(CN2CCN(c3ccc(C(=O)NS(=O)(=O)c4ccc(NCC5CCOCC5)c([N+](=O)[O-])c4)c(Oc4cnc5[nH]ccc5c4)c3)CC2)=C(c2ccc(Cl)cc2)C1 + CC(Nc1ccc2c(c1)OCCn1cc(N3C(=O)OCC3C(F)F)nc1-2)C(N)=O
5.56 µM: IC50 (second compound 0.0316 µM)
6.33 µM: IC50 (second compound 0.01 µM)
6.16 µM: IC50 (second compound 0.00316 µM)
4.21 µM: IC50 (second compound 1 µM)
4.86 µM: IC50 (second compound 0.316 µM)
inactive: viability, T/C [1] 91.7% | viability, T/C [2] 102% | viability, T/C [13] 105% | viability, T/C [14] 106% | viability, T/C [15] 94.3% | viability, T/C [16] 17.5% | viability, T/C [3] 104% | viability, T/C [4] 98.5% | viability, T/C [17] 97.5% | viability, T/C [18] 107% | viability, T/C [19] 96.2% | viability, T/C [20] 19.3% | viability, T/C [5] 112% | viability, T/C [6] 104% | viability, T/C [21] 95.8% | viability, T/C [22] 91.4% | viability, T/C [23] 87.4% | viability, T/C [24] 14.5% | viability, T/C [7] 94.2% | viability, T/C [8] 88.2% | viability, T/C [25] 91.5% | viability, T/C [26] 97.9% | viability, T/C [27] 78.2% | viability, T/C [28] 13.7% | viability, T/C [9] 81.7% | viability, T/C [10] 89% | viability, T/C [29] 80.2% | viability, T/C [30] 75.4% | viability, T/C [31] 73% | viability, T/C [32] 13.6% | viability, T/C [11] 78.5% | viability, T/C [12] 77.1% | viability, T/C [33] 73.9% | viability, T/C [34] 69.7% | viability, T/C [35] 63.3% | viability, T/C [36] 14.1%
5.22 µM: IC50 (second compound 0.1 µM)

C[C@@H](NC(=O)c1ncnc(N)c1Cl)c1ncc(C(=O)Nc2cc(C(F)(F)F)c(Cl)cn2)s1 + CC(Nc1ccc2c(c1)OCCn1cc(N3C(=O)OCC3C(F)F)nc1-2)C(N)=O
8.97 µM: IC50 (second compound 0.1 µM)
7.88 µM: IC50 (second compound 0.316 µM)
> 10 µM: IC50 (second compound 0.00316 µM) | IC50 (second compound 0.01 µM) | IC50 (second compound 0.0316 µM)
4.87 µM: IC50 (second compound 1 µM)
inactive: viability, T/C [1] 114% | viability, T/C [2] 129% | viability, T/C [13] 110% | viability, T/C [14] 121% | viability, T/C [15] 90.8% | viability, T/C [16] 75.3% | viability, T/C [3] 116% | viability, T/C [4] 108% | viability, T/C [17] 111% | viability, T/C [18] 118% | viability, T/C [19] 101% | viability, T/C [20] 66.7% | viability, T/C [5] 99.7% | viability, T/C [6] 124% | viability, T/C [21] 119% | viability, T/C [22] 110% | viability, T/C [23] 97.9% | viability, T/C [24] 63.6% | viability, T/C [7] 116% | viability, T/C [8] 93.3% | viability, T/C [25] 101% | viability, T/C [26] 95.9% | viability, T/C [27] 78% | viability, T/C [28] 46.4% | viability, T/C [9] 94% | viability, T/C [10] 97.5% | viability, T/C [29] 96.4% | viability, T/C [30] 87% | viability, T/C [31] 75.2% | viability, T/C [32] 43.5% | viability, T/C [11] 83% | viability, T/C [12] 88.8% | viability, T/C [33] 80.7% | viability, T/C [34] 77.2% | viability, T/C [35] 62.3% | viability, T/C [36] 29.7%
